This is an account of results in the NIST ThermoML archive (doi:10.1016/j.jct.2008.12.009).

Numbers after ± are expanded uncertainties.

The data set is described as follows: excess molar enthalpy (molar enthalpy of mixing); xn = mol fraction of the nth substance listed. The following applies: 101.33 kPa, Gas, Flow calorimetry, x1 = 0.5.

Regarding `O=O` [oxygen] + O, the excess molar enthalpy is, setting by setting: (373.15 K) 0.0132 ± 0.000406 kcal/mol; (383.15 K) 0.0115 ± 0.000382 kcal/mol; (393.15 K) 0.0103 ± 0.000382 kcal/mol; (403.15 K) 0.00908 ± 0.000382 kcal/mol; (413.15 K) 0.00822 ± 0.000382 kcal/mol; (423.15 K) 0.00741 ± 0.000382 kcal/mol. Also, the excess molar enthalpy was determined as 0.00679 ± 0.000359 kcal/mol (433.15 K); 0.00619 ± 0.000359 kcal/mol (443.15 K); 0.00564 ± 0.000359 kcal/mol (453.15 K); 0.00516 ± 0.000359 kcal/mol (463.15 K); 0.00483 ± 0.000359 kcal/mol (473.15 K); 0.00449 ± 0.000359 kcal/mol (483.15 K). Further, the excess molar enthalpy (493.15 K) turned out to be 0.00413 ± 0.000359 kcal/mol.

Turning to `N#N` [nitrogen] + O, the excess molar enthalpy by setting is: (373.15 K) 0.0129 ± 0.000382 kcal/mol; (383.15 K) 0.0113 ± 0.000359 kcal/mol; (393.15 K) 0.0101 ± 0.000359 kcal/mol; (403.15 K) 0.00891 ± 0.000359 kcal/mol; (413.15 K) 0.00803 ± 0.000359 kcal/mol; (423.15 K) 0.00722 ± 0.000335 kcal/mol. The excess molar enthalpy (433.15 K) was found to be 0.00664 ± 0.000335 kcal/mol; the excess molar enthalpy (443.15 K) came out at 0.006 ± 0.000335 kcal/mol; the excess molar enthalpy (453.15 K) was 0.00547 ± 0.000335 kcal/mol; the excess molar enthalpy (463.15 K) was found to be 0.00504 ± 0.000335 kcal/mol; the excess molar enthalpy (473.15 K) was 0.00471 ± 0.000335 kcal/mol; the excess molar enthalpy (483.15 K) stood at 0.0043 ± 0.000335 kcal/mol. Moreover, the excess molar enthalpy (493.15 K) came out at 0.00402 ± 0.000335 kcal/mol.
